Values after ≈ are worked out from the molar mass of the structure shown.
What was measured:
Assay type in all cases: functional
Escherichia coli [1] = test: Antibacterial activity against Escherichia coli ATCC25922 incubated for 16 to 20 hrs by broth microdilution method; details: time 16-20 hrs
[2] = system: Stenotrophomonas maltophilia; test: Antibacterial activity against Stenotrophomonas maltophilia ATCC17808 incubated for 16 to 20 hrs by broth microdilution method; details: time 16-20 hrs
Enterococcus faecalis = test: Antibacterial activity against Enterococcus faecalis ATCC29212 incubated for 16 to 20 hrs by broth microdilution method; details: time 16-20 hrs
Staphylococcus aureus [3] = test: Antibacterial activity against Staphylococcus aureus ATCC25923 incubated for 16 to 20 hrs by broth microdilution method; details: time 16-20 hrs
Escherichia coli [4] = test: Antibacterial activity against Escherichia coli ATCC25922 under 10^7 CFU/ml of bacterial inoculum culture by absorbance based assay
Escherichia coli [5] = test: Antibacterial activity against drug-resistant Escherichia coli clinical isolate 1322 incubated for 16 to 20 hrs by broth microdilution method; details: time 16-20 hrs
Staphylococcus aureus [6] = test: Antibacterial activity against drug-resistant Staphylococcus aureus clinical isolate M20 incubated for 16 to 20 hrs by broth microdilution method; details: time 16-20 hrs
Escherichia coli [7] = test: Antibacterial activity against Escherichia coli ATCC25922 under 10^5 CFU/ml of bacterial inoculum culture by absorbance based assay
Escherichia coli [8] = test: Antibacterial activity against drug-resistant Escherichia coli clinical isolate 1333 incubated for 16 to 20 hrs by broth microdilution method; details: time 16-20 hrs
Staphylococcus aureus [9] = test: Antibacterial activity against Staphylococcus aureus ATCC25923 under 10^6 CFU/ml of bacterial inoculum culture by absorbance based assay
Staphylococcus aureus [10] = test: Antibacterial activity against Staphylococcus aureus ATCC25923 under 10^7 CFU/ml of bacterial inoculum culture by absorbance based assay
Escherichia coli [11] = test: Antibacterial activity against Escherichia coli ATCC25922 under 10^6 CFU/ml of bacterial inoculum culture by absorbance based assay
Staphylococcus aureus [12] = test: Antibacterial activity against Staphylococcus aureus ATCC25923 under 10^5 CFU/ml of bacterial inoculum culture by absorbance based assay
Escherichia coli [13] = test: Antibacterial activity against Escherichia coli ATCC25922 under 10^4 CFU/ml of bacterial inoculum culture by absorbance based assay
Staphylococcus aureus [14] = test: Antibacterial activity against Staphylococcus aureus ATCC25923 under 10^4 CFU/ml of bacterial inoculum culture by absorbance based assay

Row | MIC (Escherichia coli [1]) [µg/mL] | MIC [2] [µg/mL] | MIC (Enterococcus faecalis) [µg/mL] | MIC (Staphylococcus aureus [3]) [µg/mL] | Compound | MIC (Escherichia coli [4]) [µg/mL] | MIC (Escherichia coli [5]) [µg/mL] | MIC (Staphylococcus aureus [6]) [µg/mL] | MIC (Escherichia coli [7]) [µg/mL] | MIC (Escherichia coli [8]) [µg/mL] | MIC (Staphylococcus aureus [9]) [µg/mL] | MIC (Staphylococcus aureus [10]) [µg/mL] | MIC (Escherichia coli [11]) [µg/mL] | MIC (Staphylococcus aureus [12]) [µg/mL] | MIC (Escherichia coli [13]) [µg/mL] | MIC (Staphylococcus aureus [14]) [µg/mL]
1 | 2 (≈ 2.23 µM) | 8 (≈ 8.93 µM) | 2 (≈ 2.23 µM) | 2 (≈ 2.23 µM) | CC[C@H]1OC(=O)C[C@@H](O)[C@H](C)[C@@H](O[C@@H]2O[C@H](C)[C@@H](O)[C@H](N(C)C)[C@H]2O)[C@@H](CCNCc2cn(-c3cnc4ccccc4c3)nn2)C[C@@H](C)C(=O)/C=C/C(C)=C/[C@@H]1CNc1ccc(C)cc1 |  |  |  |  |  |  |  |  |  |  | 
2 | 8 (≈ 8.09 µM) | 8 (≈ 8.09 µM) | 8 (≈ 8.09 µM) | 4 (≈ 4.04 µM) | CC[C@H]1OC(=O)C[C@@H](O)[C@H](C)[C@@H](O[C@@H]2O[C@H](C)[C@@H](O)[C@H](N(C)C)[C@H]2O)[C@@H](CCN(C)Cc2cn(-c3cnc4ccccc4c3)nn2)C[C@@H](C)C(=O)/C=C/C(C)=C/[C@@H]1CNCc1cccc(Br)c1 |  |  |  |  |  |  |  |  |  |  | 
3 | 8 (≈ 8.09 µM) | 8 (≈ 8.09 µM) | 8 (≈ 8.09 µM) | 4 (≈ 4.04 µM) | CC[C@H]1OC(=O)C[C@@H](O)[C@H](C)[C@@H](O[C@@H]2O[C@H](C)[C@@H](O)[C@H](N(C)C)[C@H]2O)[C@@H](CCN(C)Cc2cn(-c3cnc4ccccc4c3)nn2)C[C@@H](C)C(=O)/C=C/C(C)=C/[C@@H]1CNCc1ccc(Br)cc1 |  |  |  |  |  |  |  |  |  |  | 
4 | 2 (≈ 2.16 µM) | 2 (≈ 2.16 µM) | 2 (≈ 2.16 µM) | 2 (≈ 2.16 µM) | CCc1ccc(NC[C@H]2/C=C(C)/C=C/C(=O)[C@H](C)C[C@H](CCN(C)Cc3cn(-c4cnc5ccccc5c4)nn3)[C@H](O[C@@H]3O[C@H](C)[C@@H](O)[C@H](N(C)C)[C@H]3O)[C@@H](C)[C@H](O)CC(=O)O[C@@H]2CC)cc1 |  |  |  |  |  |  |  |  |  |  | 
5 | 4 (≈ 4.1 µM) | 4 (≈ 4.1 µM) | 4 (≈ 4.1 µM) | 2 (≈ 2.05 µM) | CC[C@H]1OC(=O)C[C@@H](O)[C@H](C)[C@@H](O[C@@H]2O[C@H](C)[C@@H](O)[C@H](N(C)C)[C@H]2O)[C@@H](CCN(C)Cc2cn(-c3cnc4ccccc4c3)nn2)C[C@@H](C)C(=O)/C=C/C(C)=C/[C@@H]1CNc1ccc(Br)cc1 |  |  |  |  |  |  |  |  |  |  | 
6 | 4 (≈ 4.39 µM) | 4 (≈ 4.39 µM) | 8 (≈ 8.79 µM) | 4 (≈ 4.39 µM) | CC[C@H]1OC(=O)C[C@@H](O)[C@H](C)[C@@H](O[C@@H]2O[C@H](C)[C@@H](O)[C@H](N(C)C)[C@H]2O)[C@@H](CCN(C)Cc2cn(-c3cnc4ccccc4c3)nn2)C[C@@H](C)C(=O)/C=C/C(C)=C/[C@@H]1CNc1ccc(C)cc1 |  |  |  |  |  |  |  |  |  |  | 

More lines, now with the values behind:

Row | Compound | MIC (Escherichia coli [1]) [µg/mL] | MIC [2] [µg/mL] | MIC (Enterococcus faecalis) [µg/mL] | MIC (Staphylococcus aureus [3]) [µg/mL] | MIC (Escherichia coli [4]) [µg/mL] | MIC (Escherichia coli [5]) [µg/mL] | MIC (Staphylococcus aureus [6]) [µg/mL] | MIC (Escherichia coli [7]) [µg/mL] | MIC (Escherichia coli [8]) [µg/mL] | MIC (Staphylococcus aureus [9]) [µg/mL] | MIC (Staphylococcus aureus [10]) [µg/mL] | MIC (Escherichia coli [11]) [µg/mL] | MIC (Staphylococcus aureus [12]) [µg/mL] | MIC (Escherichia coli [13]) [µg/mL] | MIC (Staphylococcus aureus [14]) [µg/mL]
7 | CC[C@H]1OC(=O)C[C@@H](O)[C@H](C)[C@@H](O[C@@H]2O[C@H](C)[C@@H](O)[C@H](N(C)C)[C@H]2O)[C@@H](CCN(C)Cc2cn(-c3cnc4ccccc4c3)nn2)C[C@@H](C)C(=O)/C=C/C(C)=C/[C@@H]1CN1CCCc2ccccc21 | 2 (≈ 2.14 µM) | 4 (≈ 4.27 µM) | 2 (≈ 2.14 µM) | 2 (≈ 2.14 µM) |  |  |  |  |  |  |  |  |  |  | 
8 | CC[C@H]1OC(=O)C[C@@H](O)[C@H](C)[C@@H](O[C@@H]2O[C@H](C)[C@@H](O)[C@H](N(C)C)[C@H]2O)[C@@H](CCN(C)Cc2cn(-c3cnc4ccccc4c3)nn2)C[C@@H](C)C(=O)/C=C/C(C)=C/[C@@H]1CN(Cc1ccccc1)C(C)C | 16 (≈ 16.8 µM) | 8 (≈ 8.4 µM) | 16 (≈ 16.8 µM) | 8 (≈ 8.4 µM) |  |  |  |  |  |  |  |  |  |  | 
9 | CC[C@H]1OC(=O)C[C@@H](O)[C@H](C)[C@@H](O[C@@H]2O[C@H](C)[C@@H](O)[C@H](N(C)C)[C@H]2O)[C@@H](CCN(C)Cc2cn(-c3cnc4ccccc4c3)nn2)C[C@@H](C)C(=O)/C=C/C(C)=C/[C@@H]1CN(CC)Cc1ccccc1 | 8 (≈ 8.53 µM) | 2 (≈ 2.13 µM) | 4 (≈ 4.26 µM) | 2 (≈ 2.13 µM) |  |  |  |  |  |  |  |  |  |  | 
10 | CC[C@H]1OC(=O)C[C@@H](O)[C@H](C)[C@@H](O[C@@H]2O[C@H](C)[C@@H](O[C@H]3C[C@@](C)(O)[C@@H](O)[C@H](C)O3)[C@H](N(C)C)[C@H]2O)[C@@H](CC=O)C[C@@H](C)C(=O)/C=C/C(C)=C/[C@@H]1CO[C@@H]1O[C@H](C)[C@@H](O)[C@@H](OC)[C@H]1OC [TYLOSIN] | > 32 | > 32 | 0.5 (≈ 0.546 µM) | 0.5 (≈ 0.546 µM) | 2 (≈ 2.18 µM) | > 32 | 0.5 (≈ 0.546 µM) | 1 (≈ 1.09 µM) | > 32 | 4 (≈ 4.37 µM) | 4 (≈ 4.37 µM) | 2 (≈ 2.18 µM) | 2 (≈ 2.18 µM) | 1 (≈ 1.09 µM) | 1 (≈ 1.09 µM)
11 | CC[C@H]1OC(=O)C[C@@H](O)[C@H](C)[C@@H](O[C@@H]2O[C@H](C)[C@@H](O)[C@H](N(C)C)[C@H]2O)[C@@H](CC=O)C[C@@H](C)C(=O)/C=C/C(C)=C/[C@@H]1CO | > 32 | > 32 | 0.5 (≈ 0.836 µM) | 0.5 (≈ 0.836 µM) |  | > 32 | 1 (≈ 1.67 µM) |  | > 32 |  |  |  |  |  | 

Reference: ChEMBL document CHEMBL6074711, “Design, Synthesis, and Activity Evaluation of C-23-Modified 5-O-Mycaminosyltylonolide Derivatives” (ACS Med Chem Lett, 2024)
